This note sets out measurements from ChEMBL document CHEMBL3627683, “Effective Two-Photon Excited Photodynamic Therapy of Xenograft Tumors Sensitized by Water-Soluble Bis(arylidene)cycloalkanone Photosensitizers” (J Med Chem, 2015).

The test system of data set [1] is HepG2. Description: Photocytotoxicity against human HepG2 cells assessed as cell viability preincubated for 4 hrs in dark condition followed by irradiation at 800 nm for 10 mins measured 24 hrs post incubation in dark condition by CCK-8 assay. The format is functional, cell-based. To be noted: HepG2, light or radiation study.
Data set [2] relates to HepG2. Description: Photocytotoxicity against human HepG2 cells assessed as cell viability preincubated for 4 hrs in dark condition followed by irradiation at 532 nm for 20 mins measured 24 hrs post incubation in dark condition by CCK-8 assay. The format is functional, cell-based. As to conditions: HepG2, light or radiation study.
Data set [3] can be described thus: Dark toxicity in human HepG2 cells assessed as cell viability measured after 24 hrs by CCK-8 assay. Format: cell-based. As to conditions: read-out: TC50. Background: Formazan colour is commonly taken as a measure of viable cells.
A short description of data set [4]: Solubility of the compound in PBS. The format is physicochemical.
Data set [5] can be described thus: Drug uptake in mitochondria of human HepG2 cells by MitoLite NIR staining-based CLSM analysis. The format is ADME. As to conditions: TDE = time-dependent effect.
A short description of data set [6]: Octanol-water partition coefficient, log P of the compound. Format: physicochemical.
Data set [7] can be described thus: Therapeutic ratio of TC50 for human HepG2 cells to IC50 for human HepG2 cells under irradiation at […]. The format is ADME, cell-based. As to conditions: read-out: TI.
Data set [8] in a line: Therapeutic ratio of TC50 for human HepG2 cells to IC50 for human HepG2 cells under irradiation at 800 nm. Format: ADME, cell-based. To be noted: read-out: TI.
The nature of data set [9]: Drug uptake in mitochondria of human HepG2 cells at 5 uM for 4 hrs by MitoLite NIR staining-based CLSM analysis. Format: ADME. As to conditions: hepg2, 4 h.
Data set [10] has as its system CCRF S-180. Briefly: Antitumor activity against mouse S180 cells implanted in BALB/c mouse assessed as prolongation of survival at 17.5 mg/kg, iv administered 3 hrs in the absence of irradiation measured by Kaplan-Meier analysis. Format: functional, organism-based.
Data set [11] concerns HepG2. Description: Induction of ROS generation in human HepG2 cells at 5 uM preincubated for 4 hrs followed by DCFH-DA addition for 0.5 hrs in absence of irradiation measured by CSLM. The format is functional, cell-based.
For data set [12], the system named is CCRF S-180. Briefly: Drug uptake in mouse S180 cells implanted in BALB/c mouse at 17.5 mg/kg, iv measured within 3 hrs by CSLM analysis. Format: ADME, organism-based. To be noted: in vivo.
In data set [13] the test system is CCRF S-180. Description: Antitumor activity against mouse S180 cells implanted in BALB/c mouse assessed as tumor growth inhibition at 17.5 mg/kg, iv administered 3 hrs followed by irradiation at 800 nm for 25 mins measured every other day until 12 days […]. The format is functional, organism-based.
For data set [14], the system named is CCRF S-180. Briefly: Drug uptake in mouse S180 cells implanted in BALB/c mouse at 17.5 mg/kg, iv measured at 3 to 24 hrs by CSLM analysis. The format is ADME, organism-based. To be noted: in vivo.
Data set [15] concerns CCRF S-180. Briefly: Antitumor activity against mouse S180 cells implanted in BALB/c mouse assessed as prolongation of survival at 17.5 mg/kg, iv administered 3 hrs followed by irradiation at 800 nm for 25 mins measured by Kaplan-Meier analysis. The format is functional, organism-based.
Data set [16] relates to CCRF S-180. Briefly: Antitumor activity against mouse S180 cells implanted in BALB/c mouse assessed as tumor growth inhibition at 17.5 mg/kg, iv administered 3 hrs followed by irradiation at 800 nm for 25 mins measured every other day until 12 days relative to control. Format: functional. As to conditions: CCRF S-180, light or radiation study, read-out: TGI.
For data set [17], the system named is Mus musculus. Description: Induction of blood vessels blockage in BALB/c mouse dorsal skinfold window chamber model at 17.5 mg/kg, iv irradiated at 800 nm for 5 mins monitored by stereomicroscopic analysis. Format: functional, organism-based. As to conditions: Blood vessel.
The subject of data set [18] is HepG2. Briefly: Induction of ROS generation in human HepG2 cells at 5 uM preincubated for 4 hrs followed by DCFH-DA addition for 0.5 hrs and irradiation at 800 nm for 10 mins measured by CLSM. The format is functional, cell-based.

The structures appear in SMILES notation. In brackets after ≈: the same amount, converted by molar mass. Activity calls are given as the source filed them. No cut-off for these calls is given here.

One may read the IC50 as the point on the concentration scale where inhibition reaches its midpoint. As a reminder, the solubility is the concentration that dissolves in the medium under given conditions. As usually defined, the logP is the decadic logarithm of the partition coefficient of the neutral form, usually between octanol and water. For `COCCOCCOCCOCCOCCN(C)c1ccc(/C=C2\CC/C(=C\c3ccc(N(C)CCOCCOCCOCCOCCOC)cc3)C2=O)cc1`, the IC50 in data set [1] came to 14.9 µM; in data set [2] it was 2590 nM. In addition, the CC50 at 24 h in data set [3] was 41.5 µM. The compound also showed a solubility in data set [4] greater than 100 mg/mL. In addition, the Drug uptake result is on record as “tde” in data set [5] and “Active” in data set [9]. The compound further showed a logP in [6] of 2.73. Besides, the selectivity ratio was found to be 16 in data set [7] and 2.79 in data set [8].
Consider `CCN(CC)c1ccc(C=C2CC(=Cc3ccc(N(CCOCCOCCOCCOC)CCOCCOCCOCCOC)cc3)C2=O)cc1`, for which the half-maximal inhibitory concentration (IC50) in data set [1] turned out to be 1.87 µM; in data set [2], 1270 nM. Also, the CC50 at 24 h in [3] was 24 µM. The amount in solution in [4] (solubility) came to 1.8 mg/mL (≈ 2.52 mM). In addition, the Drug uptake result in [5] is “tde”; in data set [9], “Active”. Also, the log partition coefficient (logP) in [6] was found to be 3.2. Further, the selectivity ratio was determined as 18.9 in [7] and 12.8 in [8].
Consider `CCN(CC)c1ccc(C=C2CC(=Cc3ccc(N(CCOCCOCCOCCOCCOC)CCOCCOCCOCCOCCOC)cc3)C2=O)cc1`, for which the figures for the IC50 in data set [1] and in data set [2] were 3.93 µM and 1410 nM, respectively. Moreover, the result in [10] and in [11] was inactive. In data set [3], the CC50 at 24 h was found to be 35.9 µM. The Drug uptake entry is given as “Active” in data set [12], “tde” in data set [5], “Not Active” in data set [14] and “Active” in data set [9]. Further, in data set [13], the TGI result is “inactive”. Further, in data set [4], the solubility was greater than 100 mg/mL. In addition, the logP in data set [6] amounted to 3.04. In addition, the outcome in data set [15], in data set [17] and in data set [18] was Active. The selectivity ratio in [7] worked out at 25.5; in data set [8], 9.13. In addition, the inhibition in vivo at 17.5 mg/kg in [16] amounted to 43%.
Consider `COCCOCCOCCOCCOCCN(C)c1ccc(C=C2CC(=Cc3ccc(N(C)CCOCCOCCOCCOCCOC)cc3)C2=O)cc1`, for which the half-inhibitory concentration (IC50) is 16.8 µM in data set [1] and 3070 nM in data set [2]. Besides, the CC50 at 24 h in [3] was 41.9 µM. For the same compound, the solubility in data set [4] was greater than 100 mg/mL. For the same compound, the Drug uptake result in data set [5] was “tde”; in data set [9], “Active”. The compound further registered a logP in [6] of 2.54. Also, the figures for the selectivity ratio in data set [7] and in data set [8] were 13.6 and 2.49, respectively.
As to `CCN(CC)c1ccc(/C=C2\CC/C(=C\c3ccc(N(CCOCCOCCOCCOCCOC)CCOCCOCCOCCOCCOC)cc3)C2=O)cc1`, the half-maximal inhibitory concentration (IC50) came out at 4.66 µM in [1] and 1610 nM in data set [2]. Further, in [3], the CC50 at 24 h was 20.9 µM. In addition, the solubility in data set [4] is greater than 100 mg/mL. Further, the Drug uptake entry in data set [5] is reported as “tde”; in [9], “Active”. The compound also registered a logP in data set [6] of 3.2. Further, the selectivity ratio in data set [7] was found to be 13; in data set [8] it was 4.48.
In the case of `COCCOCCOCCOCCN(C)c1ccc(C=C2CC(=Cc3ccc(N(C)CCOCCOCCOCCOC)cc3)C2=O)cc1`, the IC50 in [1] worked out at 13.2 µM; in data set [2], 2260 nM. Besides, in [3], the CC50 at 24 h came to 34 µM. In addition, in data set [4], the concentration in solution (solubility) was 0.3 mg/mL (≈ 0.438 mM). The Drug uptake entry in data set [5] was “tde”; in [9], “Active”. The same compound displayed a logP in [6] of 2.86. Besides, the selectivity ratio in [7] stood at 15; in data set [8] it was 2.58.
